Earlier results in patent publication US9808437B2, “Monounsaturated fatty acid compositions and use for treating atherosclerosis” (BURKE & BOYER NYC, priority 2014, dated 2017).

Test system: ApoE-deficient mice
Details: 20 mg/kg/day; control 21.9 ± 2.9; P<0.05

Compound: CC(C)c1nc(N(C)S(C)(=O)=O)nc(-c2ccc(F)cc2)c1/C=C/[C@@H](O)C[C@@H](O)CC(=O)O [Rosuvastatin]
- Aortic Lesion: 11.9 ± 1.9 %
